Assay results from article PMC3319690 (Journal of Immunology (Baltimore, Md. : 1950), 2008).

Legend:
[1] = test system: CD8^+ T cells; conditions: mouse, in vivo
[2] = test system: naive, epitope-specific precursor CD8^+ T cells; parameters: species or system mouse; conditions: for Naive epitope-specific CD8^+ T cells per mouse: spleen and lymph nodes of individual naive H-2^b mice, average, n = 15–19, tetramer-based enrichment
[3] = test system: CD8^+ T cells; conditions: mouse, in vivo; remark: listed apart in the source
[4] = test system: CD8^+ T cells; conditions: mouse, in vivo; remark: listed apart in the source
[5] = test system: CD8^+ T cells; format: in vivo, mouse
[6] = test system: naive, epitope-specific precursor CD8^+ T cells; conditions: indirect titration of TCR transgenic T cells; cited from earlier work

Substance	IFN-γ response to wild-type epitopes in GPVNPV-inoculated mice [1]	Naive epitope-specific CD8^+ T cells per mouse [2]	CD8^+ T cell response in F1 hybrid mice [3]	CD8^+ T cell response in rVACV-immunized mice [4]	Response to single peptide immunization relative to peptide pool immunization ([5]; Fig. 8A vs Fig. 6, wild-type GP33–41 peptide)	CD8^+ T cell response after peptide pool immunization ([5]; pool of 28 peptides, day 11–12, H-2^b mice)	Precursor frequency relative to NP396–404/D^b-specific precursors ([2]; naive H-2^b mice)	Previous estimate of GP33–41/D^b-specific precursors [6]
GP276–286 (SGVENPGGYCL; UniProt P09991 276-286, looked up, fragment)	significantly diminished amounts of IFN-γ	–	–	–	–	–	–	–
NP205–212 (YTVKYPNL; UniProt P09992 205-212, looked up, fragment)	–	57 CD8^+ T cells	–	–	–	–	–	–
GP33–41	significantly diminished amounts of IFN-γ	449 CD8^+ T cells	still elicited robust T cell responses	the LCMV-specific response remained focused on the major dominant epitopes	~2 fold	relatively strongly recognized	4 fold	100–200 precursors
